The record followed here is ChEMBL document CHEMBL3832761, “MMV Pathogen Box Bioactivity Data” (2017).

Values after ≈ are worked out from the molar mass of the structure shown.

Holding throughout (type): functional
The test system of assay [1] is Mycobacterium tuberculosis. The experiment in a line: AntiMycobacterium tuberculosis activity 2-week GAST/Fe MIC (uM). The following applies: 336 h.
The test system of assay [2] is Mycobacterium tuberculosis. The experiment in a line: AntiMycobacterium tuberculosis activity 1-week GAST/Fe MIC (uM). The following applies: 168 h.
Assay [3] concerns Mycobacterium tuberculosis. The assay is described as follows: AntiMycobacterium tuberculosis activity 1-week 7H9/cholesterol/BSA/Tx MIC (uM). Particulars: 168 h.
For assay [4], the system named is Mycobacterium tuberculosis. The experiment in a line: AntiMycobacterium tuberculosis activity day 21 in 7H9/2.5mM butyrate/pH6/0.1mM nitrite MIC90 (uM). The following applies: 504 h.
The subject of assay [5] is Mycobacterium tuberculosis. The experiment in a line: (§1) AntiMycobacterium tuberculosis activity day 10 in 7H9/2.5mM butyrate/pH6/0.1mM nitrite MIC90 (uM). Particulars: 240 h.
The subject of assay [6] is Mycobacterium tuberculosis. The assay is described as follows: AntiMycobacterium tuberculosis activity 2-week 7H9/DPPC/cholesterol/BSA/Tx MIC (uM). The following applies: 336 h.
The test system of assay [7] is HepG2. The assay is described as follows: HepG2 glucose CC50 (uM) Cytotoxicity.
For assay [8], the system named is Mycobacterium tuberculosis. The assay is described as follows: AntiMycobacterium tuberculosis activity 2-week 7H9/glucose/BSA/Tx MIC (uM). The following applies: 336 h.
The subject of assay [9] is Mycobacterium tuberculosis. The experiment in a line: AntiMycobacterium tuberculosis activity 1-week 7H9/ADC/Tw MIC (uM). The following applies: 168 h.
The subject of assay [10] is HepG2. The assay is described as follows: HepG2 galactose CC50 (uM) Cytotoxicity.
For assay [11], the system named is Mycobacterium tuberculosis. The assay is described as follows: AntiMycobacterium tuberculosis activity 2-week Alamar Blue 7H9/cholesterol/BSA/Tx MIC (uM). Particulars: 336 h. (In general: The colour change of resazurin is a common sign of viable cells or microbes.)
Assay [12] concerns Mycobacterium tuberculosis. The assay is described as §1. The following applies: 240 h. The source holds these as a separate data set.
Assay [13] concerns Mycobacterium tuberculosis. The assay is described as follows: AntiMycobacterium tuberculosis activity 1-week 7H9/DPPC/cholesterol/BSA/Tx MIC (uM). Particulars: 168 h.
Assay [14] deals with Mycobacterium tuberculosis. The assay is described as follows: AntiMycobacterium tuberculosis activity day 21 MIC99 in 7H9/2.5mM butyrate/pH6/0.1mM nitrite MIC99 (uM). The following applies: 504 h.
For assay [15], the system named is Mycobacterium tuberculosis. The assay is described as follows: AntiMycobacterium tuberculosis activity 2-week Alamar Blue 7H9/ADC/Tw MIC (uM). Particulars: 336 h.
In assay [16] the test system is Mycobacterium tuberculosis. The assay is described as follows: AntiMycobacterium tuberculosis activity 2-week 7H9/ADC/Tw MIC (uM). Particulars: 336 h.
In assay [17] the test system is Mycobacterium tuberculosis. The assay is described as follows: AntiMycobacterium tuberculosis activity 1-week 7H9/glucose/BSA/Tx MIC (uM). Particulars: 168 h.

Take `O=[N+]([O-])c1cn2c(n1)OC[C@@H](OCc1ccc(OC(F)(F)F)cc1)C2` [PRETOMANID]: the MIC was determined as 0.15 µM (≈ 0.0539 µg/mL) in assay [1]; 0.2 µM (≈ 0.0719 µg/mL) in [2]; 0.1 µM (≈ 0.0359 µg/mL) in assay [3]; 0.2 µM (≈ 0.0719 µg/mL) in assay [6]; 0.6 µM (≈ 0.216 µg/mL) in [8]; 0.39 µM (≈ 0.14 µg/mL) in assay [9]. Besides, the MIC in [11] was 0.3 µM (≈ 0.108 µg/mL); in [13] it was 0.2 µM (≈ 0.0719 µg/mL); in assay [14] it was 3.1 µM (≈ 1.11 µg/mL); in [15] it was 0.39 µM (≈ 0.14 µg/mL); in assay [16], 0.39 µM (≈ 0.14 µg/mL); in assay [17], 0.39 µM (≈ 0.14 µg/mL). Besides, the MIC90 in assay [4] was determined as 0.78 µM (≈ 0.28 µg/mL); in assay [5], 0.39 µM (≈ 0.14 µg/mL); in assay [12], 0.78 µM (≈ 0.28 µg/mL). In addition, the CC50 in the assay with HepG2 [7] (Homo sapiens, HepG2) is over 50 µM; in the assay with HepG2 [10] (Homo sapiens, HepG2), over 50 µM.

Take `COc1cccc(-n2nnnc2S(=O)(=O)Cc2ccccc2)c1`: the MIC stood at 1.56 µM (≈ 0.515 µg/mL) in assay [1]; 1.2 µM (≈ 0.396 µg/mL) in assay [2]; 25 µM (≈ 8.26 µg/mL) in assay [3]; 50 µM (≈ 16.5 µg/mL) in [6]; 37 µM (≈ 12.2 µg/mL) in assay [8]; 25 µM (≈ 8.26 µg/mL) in assay [9]. Moreover, the MIC in [11] is 50 µM (≈ 16.5 µg/mL); in [13], 25 µM (≈ 8.26 µg/mL); in assay [14] it was 6.25 µM (≈ 2.06 µg/mL); in assay [15] it was 25 µM (≈ 8.26 µg/mL); in assay [16], 37 µM (≈ 12.2 µg/mL); in assay [17], 12.5 µM (≈ 4.13 µg/mL). The MIC90 in assay [4] was found to be 6.25 µM (≈ 2.06 µg/mL); in assay [5], 3.12 µM (≈ 1.03 µg/mL); in [12] it was 6.25 µM (≈ 2.06 µg/mL). Besides, the CC50 with HepG2 [7] was found to be 17.9 µM; in the assay on HepG2 [7] (Homo sapiens, HepG2) it was 19.1 µM; with HepG2 [10], 30.6 µM; with HepG2 [10] (Homo sapiens, HepG2), 28.5 µM.

Take `CN1CCN(c2cc(-c3ccc(F)cc3)nc(-c3ccncc3)n2)CC1`: the MIC stood at 12.5 µM (≈ 4.37 µg/mL) in [1]; 19 µM (≈ 6.64 µg/mL) in assay [2]; 12.5 µM (≈ 4.37 µg/mL) in assay [3]; 6.25 µM (≈ 2.18 µg/mL) in assay [6]; 9.4 µM (≈ 3.28 µg/mL) in assay [8]; 37 µM (≈ 12.9 µg/mL) in assay [9]. The MIC in assay [11] was 6.25 µM (≈ 2.18 µg/mL); in [13] it was 6.25 µM (≈ 2.18 µg/mL); in [14], over 50 µM; in assay [15], 12.5 µM (≈ 4.37 µg/mL); in [16], 25 µM (≈ 8.74 µg/mL); in [17], 12.5 µM (≈ 4.37 µg/mL). In addition, the MIC90 in assay [4] is 12.5 µM (≈ 4.37 µg/mL); in [5], 6.25 µM (≈ 2.18 µg/mL); in assay [12] it was over 50 µM. The half-maximal cytotoxic concentration (CC50) was over 50 µM with HepG2 [7] (Homo sapiens, HepG2) and over 50 µM with HepG2 [10] (Homo sapiens, HepG2).

Turning to `CC(=O)NC[C@H]1CN(c2ccc(N3CCSCC3)c(F)c2)C(=O)O1` [SUTEZOLID], the MIC in [1] is 0.6 µM (≈ 0.212 µg/mL); in assay [2], 0.2 µM (≈ 0.0707 µg/mL); in assay [3] it was 0.39 µM (≈ 0.138 µg/mL); in assay [6], 1.2 µM (≈ 0.424 µg/mL); in assay [8] it was 1.2 µM (≈ 0.424 µg/mL); in assay [9], 1.2 µM (≈ 0.424 µg/mL). For the same molecule, the MIC stood at 0.78 µM (≈ 0.276 µg/mL) in assay [11]; 0.6 µM (≈ 0.212 µg/mL) in assay [13]; 0.78 µM (≈ 0.276 µg/mL) in assay [14]; 0.78 µM (≈ 0.276 µg/mL) in assay [15]; 1.2 µM (≈ 0.424 µg/mL) in [16]; 0.6 µM (≈ 0.212 µg/mL) in assay [17]. Further, the MIC90 was found to be 0.39 µM (≈ 0.138 µg/mL) in [4], 0.19 µM (≈ 0.0671 µg/mL) in assay [5] and 0.39 µM (≈ 0.138 µg/mL) in assay [12]. Further, the 50% cytotoxic concentration (CC50) is over 50 µM in the assay with HepG2 [7] (Homo sapiens, HepG2) and over 50 µM in the assay with HepG2 [10] (Homo sapiens, HepG2).

Turning to `COc1ccc2nccc(NC(=O)C3CCN(CCc4ccc(Cl)cc4)CC3)c2n1`, the MIC in assay [1] was 0.39 µM (≈ 0.166 µg/mL); in assay [2] it was 0.3 µM (≈ 0.127 µg/mL); in [3], 0.39 µM (≈ 0.166 µg/mL); in assay [6] it was 0.78 µM (≈ 0.331 µg/mL); in [8], 0.78 µM (≈ 0.331 µg/mL); in [9] it was 0.39 µM (≈ 0.166 µg/mL). Besides, the minimal inhibitory concentration (MIC) in assay [11] is 0.6 µM (≈ 0.255 µg/mL); in assay [13] it was 0.39 µM (≈ 0.166 µg/mL); in assay [14], over 50 µM; in assay [15], 0.39 µM (≈ 0.166 µg/mL); in [16] it was 0.39 µM (≈ 0.166 µg/mL); in assay [17], 0.39 µM (≈ 0.166 µg/mL). The MIC90 in assay [4] is 0.78 µM (≈ 0.331 µg/mL); in assay [5], 0.39 µM (≈ 0.166 µg/mL); in assay [12], over 50 µM. For the same molecule, the CC50 with HepG2 [7] (Homo sapiens, HepG2) is over 50 µM; in the assay on HepG2 [10] (Homo sapiens, HepG2), over 50 µM.

For the molecule `Cc1ccc2nc(C)c(-c3ccn(Cc4ccccc4)n3)n2c1`, the MIC is 0.78 µM (≈ 0.236 µg/mL) in [1]; 0.78 µM (≈ 0.236 µg/mL) in assay [2]; 9.4 µM (≈ 2.84 µg/mL) in [3]; 37 µM (≈ 11.2 µg/mL) in assay [6]; at least 50 µM in assay [8]; 50 µM (≈ 15.1 µg/mL) in [9]. The MIC in assay [11] is 4.7 µM (≈ 1.42 µg/mL); in assay [13], 12.5 µM (≈ 3.78 µg/mL); in assay [14], over 50 µM; in assay [15], 19 µM (≈ 5.75 µg/mL); in [16], over 50 µM; in assay [17], 50 µM (≈ 15.1 µg/mL). In addition, the MIC90 in assay [4] was 50 µM (≈ 15.1 µg/mL); in [5], 6.25 µM (≈ 1.89 µg/mL); in assay [12], over 50 µM. For the same molecule, the CC50 in the assay with HepG2 [7] is over 50 µM; with HepG2 [7] (Homo sapiens, HepG2) it was 35.5 µM; in the assay on HepG2 [10], 28.6 µM; in the assay on HepG2 [10] (Homo sapiens, HepG2) it was 36.1 µM.

Broadly, the MIC is the smallest concentration in the dilution series that meets the test's criterion for growth inhibition. Read a low MIC as greater potency. One may read the MIC90 as an inhibitory concentration at the 90% level, which refers to growth in some studies and to a panel of isolates in others. A lower MIC90 goes with higher susceptibility. Usually CC50 stands for the concentration giving 50% cytotoxicity. Lower therefore signals greater toxicity to the cells.
